Assays:
[1] = test system: AOX; conditions: cited from earlier work; for effect on AOX transcription / effect on branched chain amino acid biosynthesis: Aubert et al. 1997
[2] = test system: AOX1a promoter; test: Luciferase expression in excised leaves of AOX1a promoter::luciferase transgenic lines, exposure to film; type: cell-based, Arabidopsis thaliana; conditions: for luciferase response to application: lines PZB-ALN 26 and 47
Method: Initial screening of the F1 plants was done by spraying excised leaves with 10 uM AA (FIG. 4A). The leaves were incubated for 4 hr in the light, then sprayed with luciferin, and exposed to autoradiographic film. […] Several pZB-ALN lines were used for imaging experiments employing a Hamamatsu photon-counting, CCD camera system (model C2400-75H).

[3] = test system: Arabidopsis plants; test: Survival of Arabidopsis plants after treatment; type: in vivo
Method: In order for a screen involving application of antimycin A or sulfometuron methyl to succeed, plants must survive the screening procedure. […] Plants from line pZB-ALN 8 were used to produce the dose response curve shown in FIG. 6 were transferred to fresh growth plates (without antimycin A) after 36 h of antimycin A treatment. […] These plants remained green with healthy, expanded first true leaves and healthy roots and produced a normal-looking second set of true leaves.

[4] = test system: AOX1a promoter; test: Dose-response of AOXP-driven luciferase expression in seedlings, photon-counting CCD camera; type: in vivo, Arabidopsis thaliana; conditions: line pZB-ALN 8
Method: Seeds from these lines were sterilized and germinated on filter discs on standard growth agar in six-well plates and then grown at 20° C. and 66 uE of continuous light for 7 days (to eliminate the possibility of circadian rhythm effects). A Hamamatsu CCD camera system was used to quantify the levels of AOXP-driven luciferase expression. […] Plants were imaged immediately following transfer to induction plates, then returned to the growth chamber under 66 uE continuous light and 20° C.

COc1nc(C)nc(NC(=O)NS(=O)(=O)c2ccccc2Cl)n1 [chlorsulfuron]
effect on AOX transcription [1]: increase in AOX transcription | effect on branched chain amino acid biosynthesis [1]: inhibit branched chain amino acid biosynthesis

O=C(O)CC(O)(CC(=O)O)C(=O)O [citrate]
luciferase response to application [2]: lower, but definite response | AOX mRNA accumulation ([1]; increase in amount of citrate in tobacco cells): accumulate

O=C(O)c1ccccc1O [salicylic acid]
luciferase response to application [2]: lower, but definite response | AOX transcript accumulation ([1]; Sauromatum guttatum and tobacco): accumulate

COC(=O)c1ccccc1S(=O)(=O)NC(=O)Nc1nc(C)cc(C)n1 [sulfometuron methyl]
luciferase expression ([2]; 5 nM, 24 h following treatment, some of the lines): higher luciferase expression | effect on AOX transcription [1]: increase in AOX transcription | effect on branched chain amino acid biosynthesis [1]: inhibit branched chain amino acid biosynthesis | survival of plants after treatment ([3]; wild-type Arabidopsis plants sprayed with 5 uM or 5 nM): survive treatment

antimycin A
luciferase expression versus untreated control leaves ([2]; 10 uM, 4 h after treatment, excised leaves, pZB-ALN and pZP-ALE lines, qualitative): higher luciferase expression | peak induction of luciferase expression over the negative control ([4]; 1.0 mM or 100 uM): about 17 fold | time after transfer until which peak induction level is kept ([4]; 1.0 mM or 100 uM): at least 10 h | time of peak induction after application ([4]; 1.0 mM or 100 uM): about 6 h | lowest concentration giving measurable induction [4]: 0.1 µM | effect on AOX protein and transcript ([1]; petunia cells, tobacco, Hensenula anomala): increases in AOX protein and transcript | survival of plants after treatment ([3]; line pZB-ALN 8, 0.1, 1.0, 10, 100 and 1000 uM, 36 h treatment, six days after treatment): survived without any apparent developmental alterations

Source: patent US6525245B1, “Method for identifying components involved in signal transduction pathways in higher plants” (The Board of Regents of the University of Nebraska, priority 1999, dated 2003)
